# Data from patent US20220265597A1, “ANTIVIRAL EFFECTS OF NARASIN IN SWINE FEED” (Elanco US Inc., priority 2014, published 2022).
# Marks after values point to notes of the source that are not given here.
# Assays:
# [1] = system: PEDV; assay: Growth performance of nursery pigs challenged with PEDV, narasin in feed; type: in vivo, pig; details: for numerical increase of overall ADG compared to the control / numerical increase of overall G:F compared to the control: overall (Day 0 to 14)
# Source text: Eighty-one weaning stage (21.8+/−0.6 days) commercial crossbred piglets (Wilson's Prairie View Farms, Burlington, Wis.) free of PEDV infection arrived at the site and six were used as potential replacement animals during the pre-challenge period (Day −7 to Day 0). Six piglets were removed at Day 0 immediately prior to PEDV challenge, resulting in fifteen pens containing five piglets/pen (n=75) animals. There were five pens per treatment. For balance of sentinel piglets within a block, a total of thirty-nine piglets of one gender and thirty-six of the other gender were used. The use of five pens (twenty-five piglets) per treatment group was estimated to detect significant differences (P<0.10) between treatment groups in growth performance and incidence of viral shedding.
# (§1) The seventy-five piglets were randomly assigned to one of three treatment groups: control (no ionophore), narasin (30 mg/kg) and narasin (60 mg/kg). They acclimatized to their environment and were fed daily for seven days prior to exposure with PEDV on Day 0. Treatment continued for 14 days following challenge. Pigs from the three treatment groups were administered orally with 4×10^4 TCID50/mL of the PEDV isolate PEDV/USA/NC/2013/49469 (College of Veterinary Medicine, Iowa State University). The piglets were monitored daily for changes in clinical parameters, clinical score for diarrhea, depression and gauntness, rate of food consumption, and rate of body weight change and viral swabs were taken daily to determine viral shedding.
# (§2) Viral shedding values was evaluated by RMANOVA and the PROC MIXED procedure of SAS (SAS, Cary, N.C.). Other variables for analysis included growth performance data (average daily gain, or ADG; average daily feed intake, or ADFI; and feed efficiency (unit of weight gain per unit of feed consumed), or G:F), incidence and severity of diarrhea, depression, and gauntness scores, and intestinal histology score and immunohistochemistry. The analysis of the growth performance outcomes were conducted using a generalized linear mixed model and the PROC MIXED procedure of SAS.
# Diet formulations were manufactured at Provimi (Lewisburg, Ohio) and fed in meal form.
# The effects of narasin inclusion level on mean body weights (BW), average daily weight gain (ADG), average daily feed intake (ADFI), feed efficiency (G:F), and feed conversion ratio (F:G) are shown in Table 1.
# [2] = system: PEDV; assay: Viral shedding of PEDV in fecal swabs by real-time RT-PCR; type: in vivo, pig; details: for Viral shedding: only pigs positive for shedding
# Experimental: as §1, §2
# The effects of narasin levels (0, 30, 60 mg/kg) on within-day viral shedding of nursery pigs (Table 4) and percentage of nursery pigs shedding PEDV (Table 5) are compared. Fecal swabs were collected from all pigs on test daily from Day 0 to 14 of study. Each sample was labeled with pig identification, pen number, and sample day. All samples were frozen at the time of collection and stored until required for analysis. Only fecal swab samples collected from days 0, 1, 2, 3, 4, 5, 6, 7, 8, 9, and 14 were sent for analysis. Fecal swab samples were sent to the Iowa State Veterinary Diagnostic Laboratory (ISVDL) and were analyzed using real-time RT-PCR to determine viral shedding of PEDV.
# [3] = system: PEDV; assay: Intestinal histology score and immunohistochemistry of PEDV-challenged nursery pigs; type: in vivo, pig; details: not significant (P>0.05)
# Experimental: as §2
# The effects of narasin inclusion level on the intestinal histology score and immunohistochemistry were analyzed. As narasin level increased from 0, 30, 60 mg/kg), histology scores decreased from 2 to 0 while the immunohistochemistry score decreased only at the 60 mg/kg level (from 3 to 2) although differences were not significant (P>0.05).
# [4] = system: nursery pigs; details: about 83 mg/kg feed, at least in the presence of tiamulin; cited from earlier work
# [5] = 60 mg/kg feed, Day 0 to 5, P<0.10
structure (smiles),measurement,setting,value
CC[C@@H](C(=O)O)[C@@H]1O[C@@H]([C@@H](C)[C@H](O)[C@H](C)C(=O)[C@H](CC)[C@H]2O[C@]3(C=C[C@@H](O)[C@]4(CC[C@@](C)([C@H]5CC[C@](O)(CC)[C@H](C)O5)O4)O3)[C@H](C)C[C@@H]2C)[C@@H](C)C[C@@H]1C [narasin],effect of narasin level on overall growth performance,"[1]; 0, 30, 60 mg/kg feed, Day 0 to 14, P>0.10",no effect
same,"differences for ADG, ADFI, G:F, or F:G","[1]; 0, 30, 60 mg/kg feed, Day 5 to 14",no statistical differences
same,BW,"[1]; 30 mg/kg feed, Day 0 (PEDV challenge)",16.9 lb
same,ADFI,"[1]; 30 mg/kg feed, Day 0 to 5",0.68 lb
same,ADG,"[1]; 30 mg/kg feed, Day 0 to 5",0.38* lb
same,F:G,"[1]; 30 mg/kg feed, Day 0 to 5",1.93 lb:lb
same,G:F,"[1]; 30 mg/kg feed, Day 0 to 5",0.551 lb:lb
same,increase of ADG compared to the control,"[1]; 30 mg/kg feed, Day 0 to 5, P<0.10",58.3%
same,ADFI,"[1]; 30 mg/kg feed, Day 0 to 14",1.00 lb
same,ADG,"[1]; 30 mg/kg feed, Day 0 to 14",0.70 lb
same,F:G,"[1]; 30 mg/kg feed, Day 0 to 14",1.48 lb:lb
same,G:F,"[1]; 30 mg/kg feed, Day 0 to 14",0.711 lb:lb
same,BW,"[1]; 30 mg/kg feed, Day 5",18.7 lb
same,ADFI,"[1]; 30 mg/kg feed, Day 5 to 14",1.23 lb
same,ADG,"[1]; 30 mg/kg feed, Day 5 to 14",0.92 lb
same,F:G,"[1]; 30 mg/kg feed, Day 5 to 14",1.38 lb:lb
same,G:F,"[1]; 30 mg/kg feed, Day 5 to 14",0.772 lb:lb
same,BW,"[1]; 30 mg/kg feed, Day 14",26.9 lb
same,BW,"[1]; 30 mg/kg feed, Day −7 (arrival, allotment)",14.9* lb
same,ADFI,"[1]; 30 mg/kg feed, Day −7 to 0",0.37 lb
same,ADG,"[1]; 30 mg/kg feed, Day −7 to 0",0.29 lb
same,F:G,"[1]; 30 mg/kg feed, Day −7 to 0",1.33 lb:lb
same,G:F,"[1]; 30 mg/kg feed, Day −7 to 0",0.802 lb:lb
same,numerical increase of overall ADG compared to the control,[1]; 30 mg/kg feed,7.7%
same,numerical increase of overall G:F compared to the control,[1]; 30 mg/kg feed,7.9%
same,BW,"[1]; 60 mg/kg feed, Day 0 (PEDV challenge)",16.7 lb
same,ADFI,"[1]; 60 mg/kg feed, Day 0 to 5",0.71 lb
same,ADG,"[1]; 60 mg/kg feed, Day 0 to 5",0.48* lb
same,F:G,"[1]; 60 mg/kg feed, Day 0 to 5",1.56 lb:lb
same,G:F,"[1]; 60 mg/kg feed, Day 0 to 5",0.670* lb:lb
same,increase of ADG compared to the control,[1]; [5],100%
same,increase of G:F compared to 0 mg/kg narasin,[1]; [5],78.7%
same,ADFI,"[1]; 60 mg/kg feed, Day 0 to 14",1.01 lb
same,ADG,"[1]; 60 mg/kg feed, Day 0 to 14",0.70 lb
same,F:G,"[1]; 60 mg/kg feed, Day 0 to 14",1.44 lb:lb
same,G:F,"[1]; 60 mg/kg feed, Day 0 to 14",0.698 lb:lb
same,BW,"[1]; 60 mg/kg feed, Day 5",19.2 lb
same,ADFI,"[1]; 60 mg/kg feed, Day 5 to 14",1.22 lb
same,ADG,"[1]; 60 mg/kg feed, Day 5 to 14",0.85 lb
same,F:G,"[1]; 60 mg/kg feed, Day 5 to 14",1.42 lb:lb
same,G:F,"[1]; 60 mg/kg feed, Day 5 to 14",0.708 lb:lb
same,BW,"[1]; 60 mg/kg feed, Day 14",26.9 lb
same,BW,"[1]; 60 mg/kg feed, Day −7 (arrival, allotment)",14.9* lb
same,ADFI,"[1]; 60 mg/kg feed, Day −7 to 0",0.36 lb
same,ADG,"[1]; 60 mg/kg feed, Day −7 to 0",0.26* lb
same,F:G,"[1]; 60 mg/kg feed, Day −7 to 0",1.38 lb:lb
same,G:F,"[1]; 60 mg/kg feed, Day −7 to 0",0.742 lb:lb
same,decrease of ADG compared to the control,"[1]; 60 mg/kg feed, Day −7 to 0, P<0.10",18.8%
same,numerical increase of overall ADG compared to the control,[1]; 60 mg/kg feed,7.7%
same,numerical increase of overall G:F compared to the control,[1]; 60 mg/kg feed,5.9%
same,duration of shedding,"[2]; 0, 30, 60 mg/kg feed",generally decreased as narasin level increased
same,effect of narasin level on the percentage of pigs shedding PEDV,"[2]; 0, 30, 60 mg/kg feed, P>0.10",no effect
same,viral shedding compared to the control,[2]; 30 mg/kg feed,lower (P<0.10) viral shedding on Day 2 and Day 3
same,Viral shedding,"[2]; 30 mg/kg feed, Day 0",0 cells/mL
same,Viral shedding,"[2]; 30 mg/kg feed, Day 1",1 cells/mL
same,Viral shedding,"[2]; 30 mg/kg feed, Day 2","1,005* cells/mL"
same,Viral shedding,"[2]; 30 mg/kg feed, Day 3","152,889* cells/mL"
same,Viral shedding,"[2]; 30 mg/kg feed, Day 4","7,543,717 cells/mL"
same,Viral shedding,"[2]; 30 mg/kg feed, Day 5","108,303,640 cells/mL"
same,Viral shedding,"[2]; 30 mg/kg feed, Day 6","879,972,048 cells/mL"
same,Viral shedding,"[2]; 30 mg/kg feed, Day 7","1,422,120,182 cells/mL"
same,Viral shedding,"[2]; 30 mg/kg feed, Day 8","268,967,479 cells/mL"
same,Viral shedding,"[2]; 30 mg/kg feed, Day 9","63,817,042 cells/mL"
same,Viral shedding,"[2]; 30 mg/kg feed, Day 14","2,256 cells/mL"
same,viral shedding compared to the control,[2]; 60 mg/kg feed,"lower (P<0.10) viral shedding on Day 2, 3, 4, 5, and 6"
same,Viral shedding,"[2]; 60 mg/kg feed, Day 0",0 cells/mL
same,Viral shedding,"[2]; 60 mg/kg feed, Day 1",0 cells/mL
same,Viral shedding,"[2]; 60 mg/kg feed, Day 2",1* cells/mL
same,Viral shedding,"[2]; 60 mg/kg feed, Day 3","4,085* cells/mL"
same,Viral shedding,"[2]; 60 mg/kg feed, Day 4","18,980* cells/mL"
same,Viral shedding,"[2]; 60 mg/kg feed, Day 5","593,842* cells/mL"
same,Viral shedding,"[2]; 60 mg/kg feed, Day 6","5,551,647* cells/mL"
same,Viral shedding,"[2]; 60 mg/kg feed, Day 7","171,586,154 cells/mL"
same,Viral shedding,"[2]; 60 mg/kg feed, Day 8","58,813,444 cells/mL"
same,Viral shedding,"[2]; 60 mg/kg feed, Day 9","16,189,481 cells/mL"
same,Viral shedding,"[2]; 60 mg/kg feed, Day 14","9,262 cells/mL"
same,immunohistochemistry score,"[3]; 60 mg/kg feed, decreased from 3",2
same,intestinal histology score,"[3]; narasin level increased 0, 30, 60 mg/kg: decreased from 2 to 0",0
same,toxicity to nursery pigs,[4],toxic
